Values quoted from earlier work in US20160185712A1, “PHOTO-ACTIVATED HYDROGELS” (L'OREAL, priority 2014, published 2016).

Compound: O=C1c2ccccc2C(=O)c2cc(S(=O)(=O)[O-])ccc21.[Na+] [anthraquinone-2-sulfonic acid sodium salt]
- water solubility: water soluble
